Tested on: outward potassium currents in DRG neurons
Experiment: Whole cell patch clamp recording of outward potassium currents in DRG neurons using the interface chamber
Assay type: cell-based
Description: The current across a patch clamp measuring electrode and cell versus time is shown. Whole cell recording measurements were obtained via conventional methods. The interface chamber was moved to surround the cell as in steps 101-103 above. A measurement of current was recorded while the cell was in a well containing a normal saline (control) solution. The cell was then moved from normal saline to a well containing increasing concentrations (from 0 to 10 mM in increasing increments) of the K^+ channel blocker 4-AP. For each of the measurements, cells were held at −50 mV, stepped with a prepulse to −100 mV for 400 ms and then stepped for the test to +40 mV. After the test pulse, cells were repolarized to −60 mV. Sweeps were obtained every 10 sec, and 5 sweeps were obtained per well. The interface was moved from one well to the next in a short time, such as 2 seconds.
Outward currents due to K^+ flow from the cell is shown. […] The lower current is consistent with the expected blocking effected of the 4-AP. Both the peak current (the spike at the left of graph of each measurement) and the end current (final value of current for each measurement) decreased as the concentration of 4-AP increased.
FIG. 8 illustrates a graph showing the peak current of a fractional block versus the concentration of a test substance according to one example of the invention. […] The dose response curve shown illustrates the ability of this system to measure multiple concentrations of test substance accurately.

[1] = highest concentration tested (10 mM)

For `Nc1ccncc1` [4-AP], the “end current (final value of current for each measurement)” value (as the concentration of 4-AP increased (0 to 10 mM)) was “decreased”, the peak current (as the concentration of 4-AP increased (0 to 10 mM), FIG. 7, shown as fractional block in FIG. 8) was “the peak current decreased as the concentration of 4-AP increased” and the inactivating current remaining [1] was “no inactivating current remains”. For the same compound, the “non-inactivating (persistent) current remaining” value [1] was “significant non-inactivating (persistent) current persists” and the “current across the cell membrane (outward K+ current)” value (whole cell, increasing 4-AP concentrations from 0 to 10 mM, test pulse to +40 mV) was “decreased the current across the cell membrane”.

— patent publication US20050241940A1, “Fast perfusion system and patch clamp technique utilizing an interface chamber system having high throughput and low volume requirements” (Wyeth, priority 2004, published 2005)
